Molecular target: T1, human TRPM8 (Homo sapiens, UniProt Q7Z2W7)
T1 construct: A full-length human TRPM8 gene was amplified from human prostatic tissue total RNA; expressed in transfected cells; host or cells: HEK293
Test: TRPM8 activating action, fluorescent calcium imaging in HEK293 cell line stably expressing human TRPM8
Assay type: cell-based
Conditions: HEK293 cells expressing human TRPM8; Fluo4 calcium imaging at 32° C.; 1 nM to 100 μM; Hill's equation fit
Method: The EC50 value in connection with the TRPM8 activating action of a test sample was measured according to the following procedure.
(1) Production of Cell Line Stably Expressing Human TRPM8
In order to produce a HEK293 cell line stably expressing human TRPM8, cloning of human TRPM8 gene was carried out. A full-length human TRPM8 gene was amplified from human prostatic tissue total RNA (manufactured by Cosmobio Co., Ltd.) using an RT-PCR method.
The PCR product thus obtained was cloned into an entry vector pENTR-D/TOPO (manufactured by Invitrogen, Inc.), and then was sub-cloned into pCDNA3.2-V5/DEST (manufactured by Invitrogen, Inc.), The vector was transduced into HEK293 cells by means of LIPOFECTAMINE 2000 (manufactured by Invitrogen, Inc.). The transduced cells were proliferated in DMEM medium containing 450 μg/mL of G-418 (Promega Corp.) and screened.
Measurement of the activity of TRPM8 transduced into HEK293 cells was carried out by a fluorescent calcium imaging method.
First, the cultured TRPM8 expressing cells were seeded (30,000 cells/well) in a 96-well plate coated with poly-D-lysine (manufactured by BD Biosciences Co.), the cells were incubated overnight at 37° C., and then the culture fluid was removed. Fluo4-AM liquid (manufactured by Dojindo Molecular Technologies, Inc.; CALCIUM KIT II) was added thereto, and the cells were incubated for 30 to 60 minutes at 37° C. Thereafter, the 96-well plate was mounted on a fluorescence plate reader (FDSS3000; manufactured by Hamamatsu Photonics K.K.), and while the temperature inside the apparatus chamber was maintained at 32° C., a fluorescent image made by Fluo4 when excited at an excitation wavelength of 480 nm, was captured at a detection wavelength of 520 nm using a CCD camera.
Measurement was carried out at every one second for 4 minutes in total. 15 seconds after the initiation of measurement, a test sample (prepared by dissolving each of the compounds indicated in the following Table 1 in ethanol) was added through a dispenser equipped in FDSS3000, and the activity of TRPM8 was evaluated based on the change in fluorescence intensity.
(3) Evaluation of TRPM8 Activation
For the TRPM8 activity, the intrinsic fluorescence was excluded using the following formula, so as to eliminate the influence of intrinsic fluorescence caused by the test sample. Fluorescence intensity excluding intrinsic fluorescence(Fsub)=(Fluorescence intensity of TRPM8 expressing cells at each time point)−{(fluorescence intensity of HEK293 cells at each time point)−(fluorescence intensity of HEK293 cells at the time of measurement initiation)}
Furthermore, the TRPM8 activating action induced by each sample was evaluated using the peak of the fluorescence intensity ratio after the addition of the test sample. The fluorescence intensity ratio was calculated using the following formula. Fluorescence intensity ratio=Fsub at each time point/at the time of measurement initiation
The evaluation was carried out using two wells per each treated group, and the average value was used.
The TRPM8 activating action of each test sample was evaluated at a final concentration in the range of 1 nM to 100 μM, and a dose dependent curve approximating Hill's equation by the least square method was determined.

T1 sequence (Q7Z2W7 whole entry): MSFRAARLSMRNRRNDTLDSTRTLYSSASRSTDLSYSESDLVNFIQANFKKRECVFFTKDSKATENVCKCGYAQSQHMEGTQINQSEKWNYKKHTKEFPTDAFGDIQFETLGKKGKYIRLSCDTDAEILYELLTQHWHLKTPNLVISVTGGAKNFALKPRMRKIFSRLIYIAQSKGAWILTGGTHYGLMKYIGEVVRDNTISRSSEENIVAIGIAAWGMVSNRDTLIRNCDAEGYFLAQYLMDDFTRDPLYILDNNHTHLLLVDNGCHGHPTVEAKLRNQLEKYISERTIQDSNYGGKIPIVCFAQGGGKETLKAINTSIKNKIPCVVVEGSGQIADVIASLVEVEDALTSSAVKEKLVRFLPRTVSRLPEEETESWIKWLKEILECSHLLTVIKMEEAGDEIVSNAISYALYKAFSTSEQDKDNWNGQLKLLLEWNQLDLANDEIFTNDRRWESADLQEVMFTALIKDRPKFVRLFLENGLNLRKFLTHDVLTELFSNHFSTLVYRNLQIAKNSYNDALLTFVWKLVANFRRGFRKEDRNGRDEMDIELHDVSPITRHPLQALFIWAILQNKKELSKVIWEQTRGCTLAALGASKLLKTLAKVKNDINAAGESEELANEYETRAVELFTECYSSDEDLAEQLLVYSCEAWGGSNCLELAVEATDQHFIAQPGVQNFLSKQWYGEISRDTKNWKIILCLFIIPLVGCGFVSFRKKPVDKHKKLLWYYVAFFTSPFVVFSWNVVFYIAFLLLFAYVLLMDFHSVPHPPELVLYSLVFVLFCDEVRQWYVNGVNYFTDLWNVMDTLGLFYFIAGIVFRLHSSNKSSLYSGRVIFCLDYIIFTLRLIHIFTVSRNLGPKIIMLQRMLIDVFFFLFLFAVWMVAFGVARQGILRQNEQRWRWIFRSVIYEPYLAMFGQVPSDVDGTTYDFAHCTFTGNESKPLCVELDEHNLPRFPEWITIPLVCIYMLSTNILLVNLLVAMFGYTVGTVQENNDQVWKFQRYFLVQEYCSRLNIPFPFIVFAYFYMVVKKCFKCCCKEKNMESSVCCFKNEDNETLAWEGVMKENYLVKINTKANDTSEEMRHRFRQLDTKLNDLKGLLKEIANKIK

EC50 [nM] | Structure (SMILES)
75 | C=CCc1cc(OC)c(OC(C)C(OC(C)C)c2ccc(O)c(OC)c2)c(OC)c1 (centres unmarked) [Mixture (24), Δ8′-7-isopropoxy-4-hydroxy-3,3′,5′-trimethoxy-8-O-4′-neolignan]
144 | C=CCc1cc(OC)c(OC(C)C(OCc2ccccc2)c2ccc(O)c(OC)c2)c(OC)c1 (centres unmarked) [Mixture (30), Δ8′-7-Benzyloxy-4-hydroxy-3,3′,5′-trimethoxy-8-O-4′-neolignan]
61 | C=CCc1cc(OC)c(OC(C)C(OCCCCCCCCCC)c2ccc(O)c(OC)c2)c(OC)c1 (centres unmarked) [Mixture (28), Δ8′-7-Decoxy-4-hydroxy-3,3′,5′-trimethoxy-8-O-4′-neolignan]
309 | C=CCc1cc(OC)c(OC(C)C(OCC)c2ccc(O)c(OC)c2)c(OC)c1 (centres unmarked) [Mixture (15), Δ8′-7-ethoxy-4-hydroxy-3,3′,5′-trimethoxy-8-O-4′-neolignan]
199 | C=CCc1cc(OC)c(OC(C)C(OCC)c2ccc(O)c(OC)c2)c(OC)c1 (single isomer, unassigned) [Threo-form (2), threo-Δ8′-7-ethoxy-4-hydroxy-3,3′,5′-trimethoxy-8-O-4′-neolignan]
610 | C=CCc1cc(OC)c(O[C@H](C)[C@H](OCC)c2ccc(O)c(OC)c2)c(OC)c1 [7R8R-form (2a), (7R,8R)-Δ8′-7-ethoxy-4-hydroxy-3,3′,5′-trimethoxy-8-O-4′-neolignan]
87 | C=CCc1cc(OC)c(O[C@@H](C)[C@@H](OCC)c2ccc(O)c(OC)c2)c(OC)c1 [7S8S-form (2b), (7S,8S)-Δ8′-7-ethoxy-4-hydroxy-3,3′,5′-trimethoxy-8-O-4′-neolignan]
2410 | C=CCc1cc(OC)c(OC(C)C(OC)c2ccc(O)c(OC)c2)c(OC)c1 (mixture of isomers) [Mixture (18), Δ8′-4-hydroxy-3,3′,5′,7-tetramethoxy-8-O-4′-neolignan]
12200 | C/C=C/c1ccc(OC(C)C(OCC)c2ccc(O)c(OC)c2)c(OC)c1 (centres unmarked) [Mixture (36), Δ8′-7-ethoxy-4-hydroxy-3,3′-dimethoxy-1′-propenyl-8-O-4′-neolignan]
5850 | C=CCc1ccc(OC(C)Cc2ccc(O)c(OC)c2)c(OC)c1 (centres unmarked) [Mixture (34), Δ8′-4-Hydroxy-3,3′-dimethoxy-8-O-4′-neolignan]
981 | C=CCc1cc(OC)c(O[C@H](C)[C@@H](OCC)c2ccc(O)c(OC)c2)c(OC)c1 [7S8R-form (1b), (7S,8R)-Δ8′-7-ethoxy-4-hydroxy-3,3′,5′-trimethoxy-8-O-4′-neolignan]
56200 | CCOC(c1ccc(O)c(OC)c1)C(C)Oc1ccccc1OC (centres unmarked) [Mixture (38), 4-[1-ethoxy-2-(2-methoxyphenoxy)propyl]-2-methoxyphenol]
1570 | C=CCc1cc(OC)c(OC(C)C(OCC)c2ccc(O)c(OC)c2)c(OC)c1 (single isomer, unassigned) [Erythro-form (1), erythro-Δ8′-7-ethoxy-4-hydroxy-3,3′,5′-trimethoxy-8-O-4′-neolignan]
218 | C=CCc1cc(OC)c(OC(C)C(OCCCCCC)c2ccc(O)c(OC)c2)c(OC)c1 (centres unmarked) [Mixture (26), Δ8′-7-Hexoxy-4-hydroxy-3,3′,5′-trimethoxy-8-O-4′-neolignan]
2600 | C=CCc1cc(OC)c(O[C@@H](C)[C@H](OC(C)=O)c2ccc(O)c(OC)c2)c(OC)c1 (relative stereo) [Erythro-form (23), erythro-Δ8′-7-acetyl-4-hydroxy-3,3′,5′-trimethoxy-8-O-4′-neolignan]
1230 | C=CCc1cc(OC)c(O[C@@H](C)[C@H](OCC)c2ccc(O)c(OC)c2)c(OC)c1 [7R8S-form (1a), (7R,8S)-Δ8′-7-ethoxy-4-hydroxy-3,3′,5-trimethoxy-8-O-4′-neolignan]
45 | C=CCc1cc(OC)c(OC(C)C(OC2CCCCC2)c2ccc(O)c(OC)c2)c(OC)c1 (centres unmarked) [Mixture (29), Δ8′-7-Cyclohexoxy-4-hydroxy-3,3′,5′-trimethoxy-8-O-4′-neolignan]

Structure (SMILES) | EC50 [nM]
C=CCc1cc(OC)c(OC(C)C(OC(C)(C)C)c2ccc(O)c(OC)c2)c(OC)c1 (centres unmarked) [Mixture (31), Δ8′-7-t-Butoxy-4-hydroxy-3,3′,5′-trimethoxy-8-O-4′-neolignan] | 40
C=CCc1cc(OC)c(OC(C)C(OCCOCCCC)c2ccc(O)c(OC)c2)c(OC)c1 (centres unmarked) [Mixture (32), Δ8′-7-Oxybutoxyethyl-4-hydroxy-3,3′,5′-trimethoxy-8-O-4′-neolignan] | 131
C=CCc1cc(OC)c(O[C@@H](C)[C@H](OCCCC)c2ccc(O)c(OC)c2)c(OC)c1 (relative stereo) [Erythro-form (19), Erythro-Δ8′-7-butoxy-4-hydroxy-3,3′,5′-trimethoxy-8-O-4′-neolignan] | 581
C=CCc1cc(OC)c(OC(C)C(OCCCCCCCC)c2ccc(O)c(OC)c2)c(OC)c1 (centres unmarked) [Mixture (27), Δ8′-7-Octoxy-4-hydroxy-3,3′,5′-trimethoxy-8-O-4′-neolignan] | 88
C=CCc1cc(OC)c(OC(C)C(OCC(C)C)c2ccc(O)c(OC)c2)c(OC)c1 (centres unmarked) [Mixture (25), Δ8′-7-Isobutoxy-4-hydroxy-3,3′,5′-trimethoxy-8-O-4′-neolignan] | 113
C=CCc1cc(OC)c(O[C@H](C)[C@H](OCCCC)c2ccc(O)c(OC)c2)c(OC)c1 (relative stereo) [Threo-form (20), Threo-Δ8′-7-butoxy-4-hydroxy-3,3′,5′-trimethoxy-8-O-4′-neolignan] | 43

Source: US9340478B2, “Cooling agent and TRPM8 activator” (Kao Corporation, priority 2011, dated 2016)
